One data set addresses human O-GlcNAcase (Homo sapiens (Human), UniProt O60502). The experiment in a line: biochemical. The format is biochemical. Particulars: read-out: OGA KI.
The next data set deals with LLC-PK1 cells. In words: Assay for determination of apparent permeability (Papp), bi-directional transport. The conditions noted are these: comparative compounds described in PCT/US11/059668; LLC-PK1 cells.
Experiment in data set [1]: as above
The conditions noted are these: pig, LLC-PK1.

Data set [2] deals with O-GlcNAcase in rat PC-12 cells (Rattus norvegicus (Rat), UniProt Q8VIJ5). The experiment in a line: cell-based.
Chain of O-GlcNAcase in rat PC-12 cells (Q8VIJ5 whole entry): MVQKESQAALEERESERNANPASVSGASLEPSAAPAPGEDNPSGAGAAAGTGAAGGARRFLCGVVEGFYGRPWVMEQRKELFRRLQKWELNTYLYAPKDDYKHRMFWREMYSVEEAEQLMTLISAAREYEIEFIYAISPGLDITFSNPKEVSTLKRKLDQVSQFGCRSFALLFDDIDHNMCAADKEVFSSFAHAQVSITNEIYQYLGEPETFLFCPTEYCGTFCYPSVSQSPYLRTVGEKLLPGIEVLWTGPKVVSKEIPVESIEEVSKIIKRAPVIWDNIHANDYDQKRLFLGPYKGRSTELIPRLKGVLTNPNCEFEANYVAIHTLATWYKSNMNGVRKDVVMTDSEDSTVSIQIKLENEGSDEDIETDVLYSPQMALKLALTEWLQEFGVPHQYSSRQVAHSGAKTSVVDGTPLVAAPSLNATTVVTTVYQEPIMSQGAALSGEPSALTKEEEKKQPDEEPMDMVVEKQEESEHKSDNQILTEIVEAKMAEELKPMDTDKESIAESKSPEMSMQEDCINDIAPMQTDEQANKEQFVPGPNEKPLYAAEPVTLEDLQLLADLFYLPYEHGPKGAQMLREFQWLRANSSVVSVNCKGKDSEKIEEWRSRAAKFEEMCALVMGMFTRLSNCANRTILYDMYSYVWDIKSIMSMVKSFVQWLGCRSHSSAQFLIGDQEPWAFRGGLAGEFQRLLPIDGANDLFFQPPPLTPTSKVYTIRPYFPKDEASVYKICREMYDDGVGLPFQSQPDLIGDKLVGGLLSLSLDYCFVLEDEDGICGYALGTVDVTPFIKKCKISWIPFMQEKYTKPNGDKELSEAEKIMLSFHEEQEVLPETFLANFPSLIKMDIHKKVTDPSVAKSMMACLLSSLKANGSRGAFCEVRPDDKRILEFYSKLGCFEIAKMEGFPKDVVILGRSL
Excerpt: Assay for Determination of Cellular Activity for Compounds that Inhibit O-GlcNAcase Activity
Inhibition of O-GlcNAcase, which removes O-GlcNAc from cellular proteins, results in an increase in the level of O-GlcNAcylated protein in cells. An increase in O-GlcNAcylated protein can be measured by an antibody, such as RL-2, that binds to O-GlcNAcylated protein. The amount of O-GlcNAcylated protein:RL2 antibody interaction can be measured by enzyme linked immunosorbant assay (ELISA) procedures.
A variety of tissue culture cell lines, expressing endogenous levels of O-GlcNAcase, can be utilized; examples include rat PC-12, and human U-87, or SK-N-SH cells. In this assay, rat PC-12 cells were plated in 96-well plates with approximately 10,000 cells/well. Compounds to be tested were dissolved in DMSO, either 2 or 10 mM stock solution, and then diluted with DMSO and water in a two-step process using a Tecan workstation. […] To prepare a cell lysate, the media from compound treated cells was removed, the cells were washed once with phosphate buffered saline (PBS) and then lysed for 5 minutes at room temperature in 50 μL of Phosphosafe reagent (Novagen Inc, Madison, Wis.) with protease inhibitors and PMSF. The cell lysate was collected and transferred to a new plate, which was then either coated to assay plates directly or frozen −80° C. until used in the ELISA procedure. If desired, the total protein concentration of samples is determined using 20 μL of the sample using the BCA method.
The plate was sealed and incubated at 37° C. for 2 hr with gentle shaking. The wells were then washed 3-times with 300 μl/well wash buffer. […] The plate was incubated for 60 min at 37° C. with gentle shaking. Each well was then washed 3-times with 300 μl/well wash buffer. The detection reagent was added, 100 μL/well of Amplex Ultra RED reagent (prepared by adding 30 μL of 10 mM Amplex Ultra Red stock solution to 10 ml PBS with 18 μL 3% hydrogen peroxide, H2O2). The detection reaction was incubated for 15 minutes at room temperature and then read with excitation at 530 nm and emission at 590 nm.
[3] abbreviates: comparative compounds described in PCT/US11/059668.
The mark [4] stands for this setting: purified human O-GlcNAcase 0.7 nM, pH 7.0, room temperature, Cheng-Prusoff.
Setting [5] is: rat PC-12 cells, 24 hours treatment, increase in O-GlcNAcylated protein, read-out: Cell based ELISA EC50.

The values below come from patent US9611275B2 (priority 2012, dated 2017).

Where two headings read alike, the source gives them in different places.

Chain of human O-GlcNAcase (O60502 whole entry): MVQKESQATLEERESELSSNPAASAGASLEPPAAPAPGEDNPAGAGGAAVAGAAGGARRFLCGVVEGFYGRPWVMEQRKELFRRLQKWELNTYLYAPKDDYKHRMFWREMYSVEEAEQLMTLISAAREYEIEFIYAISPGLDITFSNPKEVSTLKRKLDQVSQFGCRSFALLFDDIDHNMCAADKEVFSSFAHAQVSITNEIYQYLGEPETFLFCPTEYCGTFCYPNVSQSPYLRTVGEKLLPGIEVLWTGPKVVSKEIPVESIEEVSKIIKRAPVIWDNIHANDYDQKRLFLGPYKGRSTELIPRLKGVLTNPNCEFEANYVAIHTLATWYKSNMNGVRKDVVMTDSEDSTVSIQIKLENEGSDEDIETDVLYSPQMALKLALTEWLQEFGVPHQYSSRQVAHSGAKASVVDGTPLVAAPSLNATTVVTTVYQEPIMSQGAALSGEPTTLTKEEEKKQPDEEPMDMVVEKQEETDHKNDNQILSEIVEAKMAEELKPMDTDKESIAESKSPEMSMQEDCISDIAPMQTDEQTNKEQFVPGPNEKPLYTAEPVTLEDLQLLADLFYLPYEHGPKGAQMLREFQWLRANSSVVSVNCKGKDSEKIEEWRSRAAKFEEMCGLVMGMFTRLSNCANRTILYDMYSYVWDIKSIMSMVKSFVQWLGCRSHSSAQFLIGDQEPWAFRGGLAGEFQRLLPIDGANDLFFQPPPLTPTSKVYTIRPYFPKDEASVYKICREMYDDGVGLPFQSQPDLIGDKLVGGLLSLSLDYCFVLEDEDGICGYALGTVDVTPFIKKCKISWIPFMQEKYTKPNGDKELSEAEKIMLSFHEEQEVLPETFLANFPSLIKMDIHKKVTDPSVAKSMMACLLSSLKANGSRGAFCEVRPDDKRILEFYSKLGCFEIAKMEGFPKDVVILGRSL

As for `CNC1=N[C@@H]2[C@@H](O)[C@H](O)[C@@H]([C@@H](OCc3ccc(Cc4ccccc4)cc3)C(F)(F)F)O[C@@H]2S1` [Example 95, (3aR,5S,6S,7R,7aR)-5-((R)-1-(4-benzylbenzyloxy)-2,2,2-trifluoroethyl)-2-(methylamino)-5,6,7,7a-tetrahydro-3aH-pyrano[3,2-d]thiazole-6,7-diol], at human O-GlcNAcase (setting [3]), the Ki was 0.16 nM. For the same molecule, in the data set with LLC-PK1 cells, the “Papp (X10-6 cm/sec)” value was <1.0 X10-6 cm/sec.

`CNC1=N[C@@H]2[C@@H](O)[C@H](O)[C@@H]([C@H](C)OC)O[C@@H]2S1` [Example 111, (3aR,5S,6S,7R,7aR)-5-((S)-1-methoxyethyl)-2-(methylamino)-5,6,7,7a-tetrahydro-3aH-pyrano[3,2-d]thiazole-6,7-diol]: at human O-GlcNAcase (setting [3]), the Ki was found to be 4.26 nM. For the same molecule, the “Papp (X10-6 cm/sec)” value in the data set with LLC-PK1 cells is 2.7 X10-6 cm/sec.

For the molecule `CN(C)C1=N[C@@H]2[C@@H](O)[C@H](O)[C@@H]([C@H](OCc3ccccc3F)C(F)(F)F)O[C@@H]2S1` [Example 62, (3aR,5S,6S,7R,7aR)-2-(dimethylamino)-5-((S)-2,2,2-trifluoro-1-(2-fluorobenzyloxy)ethyl)-5,6,7,7a-tetrahydro-3aH-pyrano[3,2-d]thiazole-6,7-diol], the Ki on human O-GlcNAcase is 0.96 nM. Further, the “Papp (X10-6 cm/sec)” value in the data set with LLC-PK1 cells is given as 1.7 X10-6 cm/sec. Further, the Papp at 3 h, 1 μM in data set [1] turned out to be 31.1 ×10⁻⁶ cm/s.

With `CO[C@@H](C)[C@H]1O[C@@H]2SC(N(C)C)=N[C@@H]2[C@@H](O)[C@@H]1O` [Example 11, (3aR,5S,6S,7R,7aR)-2-(dimethylamino)-5-((S)-1-methoxyethyl)-5,6,7,7a-tetrahydro-3aH-pyrano[3,2-d]thiazole-6,7-diol], the “Papp (X10-6 cm/sec)” value in the data set with LLC-PK1 cells is reported as 1.6 X10-6 cm/sec.

Regarding `COc1ccc(CO[C@H]([C@H]2O[C@@H]3SC(N(C)C)=N[C@@H]3[C@@H](O)[C@@H]2O)C(F)(F)F)cc1` [Example 52, (3aR,5S,6S,7R,7aR)-2-(dimethylamino)-5-((R)-2,2,2-trifluoro-1-(4-methoxybenzyloxy)ethyl)-5,6,7,7a-tetrahydro-3aH-pyrano[3,2-d]thiazole-6,7-diol], the Ki on human O-GlcNAcase (setting [4]) is 1.38 nM. The Papp at 3 h, 1 μM in data set [1] came out at 30.5 ×10⁻⁶ cm/s. In data set [2] (setting [5]), the EC50 was found to be 21.3 nM.

With `CN(C)C1=N[C@@H]2[C@@H](O)[C@H](O)[C@@H]([C@@H](OCc3ccc(C(F)(F)F)cc3)C(F)(F)F)O[C@@H]2S1` [Example 66, (3aR,5S,6S,7R,7aR)-2-(dimethylamino)-5-((R)-2,2,2-trifluoro-1-(4-(trifluoromethyl)benzyloxy)ethyl)-5,6,7,7a-tetrahydro-3aH-pyrano[3,2-d]thiazole-6,7-diol], the Ki at human O-GlcNAcase was determined as 2.32 nM. The Papp at 3 h, 1 μM in data set [1] was 28.2 ×10⁻⁶ cm/s. Moreover, the EC50 in data set [2] stood at 13.5 nM.

Turning to `CNC1=N[C@@H]2[C@@H](O)[C@H](O)[C@@H]([C@@H](OCc3ccc(F)cc3)C(F)(F)F)O[C@@H]2S1` [Example 89, (3aR,5S,6S,7R,7aR)-2-(methylamino)-5-((R)-2,2,2-trifluoro-1-(4-fluorobenzyloxy)ethyl)-5,6,7,7a-tetrahydro-3aH-pyrano[3,2-d]thiazole-6,7-diol], on human O-GlcNAcase (setting [4]), the inhibitory constant (Ki) was 1.44 nM. In data set [1], the Papp at 3 h, 1 μM is 25.4 ×10⁻⁶ cm/s. Moreover, the EC50 in data set [2] (setting [5]) came to 57.4 nM.

A word on the Ki: it is the equilibrium dissociation constant of an inhibitor or competing ligand from its target. Usually Papp stands for a coefficient for how fast a substance crosses the barrier. As a reminder, the EC50 is the concentration that produces a half-maximal response.
